In BindingDB's records for doi:10.1002/ps.1855 (2010):

Target: not listed separately
Assay: Inhibition of photosynthetic electron transport protein complex in Spinacia oleracea (spinach) leaf thylakoid membranes measured at 30 seconds intervals for 10 min

Row | SMILES | IC50 [µM]
1 | CCc1ccc(/C=C2/C=C(Cc3ccccc3)C(=O)O2)cc1 | 9.1
2 | CN(C)c1ccc(/C=C2/C=C(Cc3ccccc3)C(=O)O2)cc1 | > 200
3 | O=C1O/C(=C\c2c(F)c(F)c(F)c(F)c2F)C=C1Cc1ccccc1 | 75.2
4 | CN(C)c1cccc(/C=C2/C=C(Cc3ccccc3)C(=O)O2)c1 | 13.3
5 | COc1cc(OC)c(/C=C2\C=C(Cc3ccccc3)C(=O)O2)c(OC)c1 | 12.7
6 | CN(C)c1ccc(/C=C2/C=C(Cc3ccccc3)C(=O)O2)c(Cl)c1 | > 200
7 | O=C1O/C(=C\c2cccc([N+](=O)[O-])c2)C=C1Cc1ccccc1 | 23.1

More lines, now with the values ahead:

Row | IC50 [µM] | SMILES
8 | 20.5 | O=C1O/C(=C\c2cccc(F)c2)C=C1Cc1ccccc1
9 | 21.9 | O=C1O/C(=C\c2ccc(F)cc2)C=C1Cc1ccccc1
10 | 19.1 | O=C1O/C(=C\c2ccccc2Cl)C=C1Cc1ccccc1
11 | 44.7 | O=C1O/C(=C\c2cccc(Cl)c2)C=C1Cc1ccccc1
12 | 25.8 | O=C1O/C(=C\c2ccccc2Br)C=C1Cc1ccccc1
13 | 73.8 | Cc1cccc(/C=C2/C=C(Cc3ccccc3)C(=O)O2)c1
14 | 170 | O=C1O/C(=C\c2cccc(Br)c2)C=C1Cc1ccccc1

Target: Cytochrome b6-f complex subunit 4 (Spinacia oleracea, UniProt P00166)
Sequence (P00166 whole entry, one chain of several): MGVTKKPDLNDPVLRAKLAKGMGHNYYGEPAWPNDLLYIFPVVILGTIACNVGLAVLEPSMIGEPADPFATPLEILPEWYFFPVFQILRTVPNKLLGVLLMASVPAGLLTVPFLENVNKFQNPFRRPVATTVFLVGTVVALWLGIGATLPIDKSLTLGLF
Assay: Inhibition of photosynthetic electron transport protein complex in Spinacia oleracea (spinach) leaf thylakoid membranes measured at 30 seconds intervals for 10 min

Row | SMILES | IC50 [µM]
15 | COc1ccc(/C=C2/C=C(Cc3ccccc3)C(=O)O2)cc1 | 53.7
16 | COc1ccc(/C=C2/C=C(Cc3ccccc3)C(=O)O2)cc1O | > 200
17 | O=C1O/C(=C\c2ccc3c(c2)OCO3)C=C1Cc1ccccc1 | > 200
18 | N#Cc1cccc(/C=C2/C=C(Cc3ccccc3)C(=O)O2)c1 | > 200
19 | N#Cc1ccc(/C=C2/C=C(Cc3ccccc3)C(=O)O2)cc1 | > 200
20 | COc1ccc(OC)c(/C=C2/C=C(Cc3ccccc3)C(=O)O2)c1 | 19.4
21 | O=C1O/C(=C\c2ccc([N+](=O)[O-])cc2)C=C1Cc1ccccc1 | 1.7
22 | O=C1O/C(=C\c2ccc(-c3ccccc3)cc2)C=C1Cc1ccccc1 | > 200

Continued, values first:

Row | IC50 [µM] | SMILES
23 | > 200 | Cc1ccc(/C=C2/C=C(Cc3ccccc3)C(=O)O2)cc1
24 | 10 | O=C1O/C(=C\c2cccc(C(F)(F)F)c2)C=C1Cc1ccccc1
25 | > 200 | O=C1O/C(=C\c2ccc(Br)cc2)C=C1Cc1ccccc1
26 | 8.3 | O=C1O/C(=C\c2ccc(C(F)(F)F)cc2)C=C1Cc1ccccc1
27 | > 200 | O=C1O/C(=C\c2cccc(O)c2)C=C1Cc1ccccc1
28 | > 200 | O=C1O/C(=C\c2ccc(Cl)cc2)C=C1Cc1ccccc1
29 | 11.8 | O=C1O/C(=C\c2ccccc2C(F)(F)F)C=C1Cc1ccccc1
30 | 23.5 | Cc1ccccc1/C=C1/C=C(Cc2ccccc2)C(=O)O1
31 | 19.7 | O=C1O/C(=C\c2ccccc2)C=C1Cc1ccccc1
32 | > 200 | O=C1O/C(=C\c2ccccc2O)C=C1Cc1ccccc1
33 | > 200 | O=C1O/C(=C\c2ccc(O)cc2)C=C1Cc1ccccc1
34 | 10.1 | O=C1O/C(=C\c2ccccc2F)C=C1Cc1ccccc1
